{"source": "patent US11110195B2", "about": "“Esculentin 1a derivatives and uses thereof” (University of Houston System, priority 2013, dated 2021)", "key": {"P. aeruginosa ATCC 27853": {"system": "P. aeruginosa ATCC 27853", "settings": "soluble free form, 1 μM, within 20 minutes in PBS"}, "Raw 264.7 macrophages": {"system": "Raw 264.7 macrophages", "experiment": "MTT viability assay, Raw 264.7 macrophages", "settings": "256 μM (highest concentration), 24 h", "protocol": "(§1) Cell viability is expressed as percentage with respect to the control (cells not treated with the peptides). Data points represent the mean of triplicate samples ±SEM. […] The levels of statistical significance between the two peptides are indicated as follows: **p<0.01, ***p<0.001.\n(§2) Cells were plated in wells of a microtiter plate, at 4×10^4 cells/well in DMEM supplemented with 2 mM glutamine and 2% FBS (for A549 cells) or DMEM containing 2 mM glutamine, non-essential amino acids (NEAA), sodium pyruvate and 2% FBS (for Raw 264.7 macrophages). After overnight incubation at 37° C. in a 5% CO2 atmosphere, the medium was replaced with 100 μl fresh serum-free medium supplemented with the peptides at different concentrations. After 24 h of peptide treatment, cell viability was determined by a MTT assay."}, "[1]": {"experiment": "MTT viability assay, A549 cells", "settings": "human", "protocol": "as §1, §2"}, "in vitro": {"experiment": "in vitro", "settings": "for Peptide Amount (%): 24 h, 37° C.; for remaining at 5 h, 0.575 mM / remaining at 24 h, 0.575 mM: human", "protocol": "A total of 125 μl of a 0.92 mM solution of each peptide was incubated at 37° C. with 20 μl and 60 μl human serum. Samples were collected after 5 h and 24 h of incubation, precipitated with 200 μl methanol, and centrifuged for 2 min at 10,000 g.\nThe crude solution was then analyzed by high-performance liquid chromatography (HPLC) and mass spectrometry. HPLC was performed with a Vydac C18 column, and the crude solution was diluted 5 times with 0.1% trifluoroacetic acid before injection and monitored at 280 nm."}, "[2]": {"system": "P. aeruginosa ATCC 27853 biofilm", "settings": "2 hours treatment", "protocol": "Data points are the mean±SEM of three independent experiments. The levels of statistically significant differences between the two peptides are indicated as follows *P<0.05, **P<0.01, ***P<0.001\nThe reference strain and the clinical isolates were grown at 37° C. in Luria-Bertani broth (LB) to mid-log phase (optical density of 0.8 at 590 nm). With the help of tweezers, silicone hydrogel narafilcon A soft CL (1-Day ACUVUE TruEye) were removed from the manufacturer's containers, and washed thrice in phosphate buffered saline (PBS). The lenses were then immersed into wells of a 24-multiwell plate, each well containing 1 mL of bacterial inoculum in 1/10 LB at a concentration of 5×10^4 colony-forming units (CFU)/mL. Noteworthy, the number of bacteria isolated from CL storage cases has been reported to range from 1 to 6×10^4 CFU/case (2, 10). Therefore, in order to reproduce a more realistic level of bacteria to which CLs can be exposed, an inoculum size of 5×10^4 CFU/mL was used for biofilm formation.\nThe plate was then incubated in a humidified incubator at 37° C. at 125 rpm to allow biofilm formation on the surface of both lens sides. After 20 hours of incubation, each lens was washed thrice with PBS to remove any non-adherent planktonic cells.\nThe lenses were then transferred into wells of a new 24-multiwell plate, each well containing serial dilutions of Esc-1a(1-21)NH2 and Esc-1a(1-21)-1cNH2 in PBS. For […] controls, the lenses were immersed in sterile PBS. The new plate was then incubated at 37° C. for 2 hours with gentle shaking (125 rpm). After peptide treatment, each lens was washed thrice in PBS and transferred into wells of another 24-multiwell plate, each well containing 350 μL of 0.5 mg/mL of 3-(4,5-dimethylthiazol-2-yl)-2,5-diphenyltetrazolium bromide (MTT, from Sigma Aldrich, Milan, Italy) in Hank's solution (136 mM NaCl; 0.34 mM Na2HPO4; 0.44 mMKH2PO4; 5.4 mM KCl; 4.1 mM NaHCO3 pH 7.2, supplemented with 5.5 mM D-glucose) as previously reported (8). The killing of biofilms was determined as a function of the inhibition of MTT reduction to insoluble formazan crystals by bacterial reductases. The plate was incubated again for 2 hours (125 rpm) at 37° C. Formazan crystals were solubilized by the addition of acidified isopropanol. During overnight incubation at room temperature the resulting purple color was absorbed by the lens. Afterward, each lens was soaked in absolute ethanol (500 μL in each well) to decolor it. Aliquots of 100 μL were finally transferred to the wells of a 96-multiwell plate and absorbance was measured at 590 nm using a microplate reader (Infine M 200, Tecan). Untreated bacterial cells in PBS were the control. Percentage of killing was calculated according to the formula: [1−(Abs of treated samples−Abs of blank/Abs of control samples-Abs of blank)][…], where the blank was the solvent PBS."}, "[3]": {"system": "A549 lung epithelial cells", "experiment": "Wound healing assay, A549 lung epithelial cells", "type": "cell-based, human", "settings": "A549 monolayer", "protocol": "The percentage of cell-covered area at each time point is reported on the y-axis. Control (Ctrl) represents cells not treated with the peptides. All data are the mean of at least three independent experiments ±SEM. […] Both peptides were able to stimulate the closure of the gap produced in the monolayer of A549 cells, with the optimal concentration allowing the almost complete coverage of the wound field equal to 10 μM (for the wild type peptide, FIG. 13A) or 4 μM (for the diastereomer, FIG. 13B) within approximately 24 hours or 20 hours, respectively.\nAs shown in FIGS. 13A-13B, Esc-1a(1-21)NH2 and its diastereomer both stimulated wound closure although at concentrations much higher than were required to induce a similar effect in human corneal epithelial cells. This may reflect cell specific differences."}, "HaCaT cells": {"system": "HaCaT cells", "experiment": "Wound healing assay, HaCaT cells", "type": "cell-based, human", "settings": "HaCaT monolayer", "protocol": "The percentage of cell-covered area at each time point is reported on the y-axis. Control (Ctrl) represents cells not treated with the peptide. All data are the mean of at least three independent experiments ±SEM. […] The optimal concentration allowing gap closure was 0.25 μM.\nThe experimental procedure is similar to that described in Example 6 with the following two differences: (i) 40,000 cells suspended in DMEM supplemented with 4 mM glutamine and 10% FBS were seeded on each side of the ibidi culture inserts instead of 70,000 cells in KGM-2g as for corneal epithelial cells; (ii) serum-free medium was used in the wound healing assay instead of medium supplemented with 5% FBS as for corneal epithelial cells. […] Overall, the experiments indicate that Esc-1a(1-21)NH2 can stimulate wound closure in different types of mammalian cells but this is with a different kinetic or optimal concentration and thus a stereospecific mechanism involving a direct/indirect activation of different signalling transduction cascades (depending on the selected cell type) likely subtends such events."}, "HaCaT keratinocytes": {"system": "HaCaT keratinocytes", "from_the_text": "Cell viability is expressed as percentage with respect to the control (cells not treated with the peptide). Data points represent the mean of triplicate samples ±SEM."}, "[4]": {"system": "human telomerase immortalized corneal epithelial cells", "experiment": "in vitro", "protocol": "Human corneal epithelial cells were incubated with varying concentrations of Esc-1a(1-21)NH2 for 24 hrs then cytotoxicity determined by MTT assay. Data are the mean of 3 independent experiments.\nTo determine the toxicity of Esc-1a(1-21)NH2 to human telomerase immortalized corneal epithelial cells, the following experiment was performed. The MTT (3-(4,5-Dimethylthiazole-2-yl)-2,5-diphenyltetrazolium bromide) assay measures the activity of enzymes that reduce the tetrazolium blue dye to a formazan salt. Mitochondrial reductase enzymes will reduce MTT to formazan, which can be visualized by colorimetric reaction the absorbance of which can be quantified.\nMTT assay was performed on human telomerase immortalized corneal epithelial cells treated with different concentrations of the peptide for 24 hrs. The test was performed in triplicate or quadruplicate wells with concentrations of the peptide of up to 100 μM using the following protocol. On day 1, plated the telomerase immortalized epithelial cells at 10,000 cells/well in a 96 well plate. Incubated the plate at 37° C. for […] to allow the cells to attach to the plate and spread. On day 2, incubated the cells in serum free media for at least 6 hrs prior to peptide treatment. On day 3, stimulated the cells with 100, 50, 25, 10, 5, 1, 0.5 and 0.1 μM Esc-1a(1-21)NH2 in quadruplicate for 24 hrs. On day 4, added 50 μl of 0.02% Benzalkonium chloride into 4 wells as a positive control for 15 minutes. Added 50 μl of serum free media into all the other wells (total volume 100 μl). Added 10 μl of MTT stock solution into each of the well. Incubated at 37° C. for 3 hours. At the end of 3 hours purple crystals were visible under the microscope. Added 100 μl of stop solution into each well using a multichannel pipette. Pipetted up and down to dissolve all the crystals. Gently popped the bubbles using a 10 μl tip. Read plate using plate reader at 590 nm abs and 635 nm reference. Subtracted reference OD value (635) from 590 OD value and plotted graph."}}, "note": "Like-named read-outs stand apart in the source and are kept apart here. Non-standard residues stand in square brackets, D forms with d. Residues, ends and D or L forms follow the SMILES beside them.", "data": [{"compound": "CC[C@H](C)[C@H](NC(=O)CN)C(=O)N[C@@H](Cc1ccccc1)C(=O)N[C@@H](CO)C(=O)N[C@@H](CCCCN)C(=O)N[C@@H](CC(C)C)C(=O)N[C@@H](C)C(=O)NCC(=O)N[C@@H](CCCCN)C(=O)N[C@@H](CCCCN)C(=O)N[C@H](C(=O)N[C@@H](CCCCN)C(=O)N[C@@H](CC(N)=O)C(=O)N[C@H](CC(C)C)C(=O)N[C@@H](CC(C)C)C(=O)N[C@H](C(=O)N[C@H](CO)C(=O)NCC(=O)N[C@@H](CC(C)C)C(=O)N[C@@H](CCCCN)C(=O)NCC(N)=O)[C@@H](C)CC)[C@@H](C)CC", "note": "[Esc-1a(1-21)-1cNH2] (H-GIFSKLAGKKIKN[dL]LI[dS]GLKG-NH2; N-terminus assumed)", "values": [{"measurement": "killing", "setting": "P. aeruginosa ATCC 27853", "result": "~90", "unit": "%"}, {"measurement": "decrease in the percentage of metabolically-active cells", "setting": "Raw 264.7 macrophages", "result": "~20", "unit": "%"}, {"measurement": "CC50 at 24 h", "setting": "[1]", "result": "> 256", "unit": "µM"}, {"measurement": "Peptide Amount (%)", "setting": "in vitro; 10% human fresh serum", "result": 45.61, "unit": "%"}, {"measurement": "Peptide Amount (%)", "setting": "in vitro; 30% human fresh serum", "result": 25.46, "unit": "%"}, {"measurement": "remaining at 5 h, 0.575 mM", "setting": "in vitro; 10% human fresh serum", "result": 63.3, "unit": "%"}, {"measurement": "remaining at 24 h, 0.575 mM", "setting": "in vitro; 10% human fresh serum", "result": 45.6, "unit": "%"}, {"measurement": "remaining at 5 h, 0.575 mM", "setting": "in vitro; 30% human fresh serum", "result": 30.1, "unit": "%"}, {"measurement": "remaining at 24 h, 0.575 mM", "setting": "in vitro; 30% human fresh serum", "result": 25.5, "unit": "%"}, {"measurement": "biofilm killing", "setting": "[2]; 4 μM", "result": "~35", "unit": "%"}, {"measurement": "biofilm death", "setting": "[2]; 16 μM", "result": "~80", "unit": "%"}, {"measurement": "biofilm killing", "setting": "[2]; 32 μM", "result": "~90", "unit": "%"}, {"measurement": "optimal concentration allowing almost complete coverage of the wound field", "setting": "[3]", "result": 4, "unit": "µM"}, {"measurement": "time to almost complete coverage of the wound field", "setting": "[3]; at optimal concentration", "result": "~20", "unit": "h"}]}, {"compound": "CC[C@@H](C)[C@@H](NC(=O)CN)C(=O)N[C@H](Cc1ccccc1)C(=O)N[C@H](CO)C(=O)N[C@H](CCCCN)C(=O)N[C@H](CC(C)C)C(=O)N[C@H](C)C(=O)NCC(=O)N[C@H](CCCCN)C(=O)N[C@H](CCCCN)C(=O)N[C@@H](C(=O)N[C@H](CCCCN)C(=O)N[C@H](CC(N)=O)C(=O)N[C@H](CC(C)C)C(=O)N[C@H](CC(C)C)C(=O)N[C@@H](C(=O)N[C@H](CO)C(=O)NCC(=O)N[C@H](CC(C)C)C(=O)N[C@H](CCCCN)C(=O)NCC(N)=O)[C@H](C)CC)[C@H](C)CC", "note": "[all D Esc-1a(1-21)NH2] (H-G[dI][dF][dS][dK][dL][dA]G[dK][dK][dI][dK][dN][dL][dL][dI][dS]G[dL][dK]G-NH2; N-terminus assumed)", "values": [{"measurement": "cell-covered area vs untreated control cells", "setting": "HaCaT cells", "result": "no statistically significant difference"}, {"measurement": "reduction in the number of metabolically-active keratinocytes", "setting": "HaCaT keratinocytes; 2 h treatment, 1-64 μM", "result": "did not show any remarkable reduction"}, {"measurement": "toxicity to HaCaT keratinocytes", "setting": "HaCaT keratinocytes; higher concentration tested, 24 h", "result": "did not show toxicity"}]}, {"compound": "benzalkonium chloride [BAC, reference compound]", "values": [{"measurement": "cytotoxicity", "setting": "[4]; positive control (FIG. 4)", "result": "~100", "unit": "%"}, {"measurement": "viability", "setting": "[4]; positive control, 0.02% for 15 minutes", "result": 6.2, "unit": "%"}]}]}
